# Assay results from US20040133938A1, “Use of lipoic acid in plant culture media” (priority 2002, published 2004).
# Test system: potato stem explants, cultivar Ranger Russet
# Assay: Potato Agrobacterium transformation with glyphosate selection
# Assay type: cell-based
# Conditions: for #rooted / shoots: 400 explants; for % TE (transformation efficiency) / % escape: potato
# Description: This Example describes the use of lipoic acid in an Agrobacterium-based potato transformation protocol. Five days prior to inoculation, Agrobacterium containing the transformation vector of interest were streaked on a fresh LBssck plate (see media descriptions in Example 1) from the frozen glycerol stock, grown at about 28° C. for 3-4 days and stored in the refrigerator. About 20-22 hours before inoculation, 50 mL of liquid LBssck media (see media descriptions in Example 1) were dispensed into a 250-mL sterile flask. Using a sterile bacteriological loop, one loopful of bacteria from the LBssck plate was inoculated and agitated in the liquid LBssck. The 250-mL flasks were shaken at 25° C. overnight at medium to high speed. On inoculation day, 45 mL of MSO (4.4 g/L MS salts, 2 mL/L, Gamborg's B5 salts, 30 g/L sucrose) were dispensed into a 250 mL sterile flask. Using a sterile 5 mL pipette, 5 mL of the suspension was removed and dispensed into the flask containing the 45 mL of MSO and then agitated. The desired O.D. used for Agrobacterium transformation in potato was O.D.660=0.1.
# The stock plant material to be used was collected from the growth chamber (16-hour light, 20° C.). The meristem was excised from the stock plants, and the cut end was placed in fresh PM (see media descriptions below) media, with ten meristems per plantcon. The leaves were removed from the potato stems by either cutting with a scalpel or pinching them off with forceps. After removing all the leaves in the plantcon, the stems were excised near the base and placed in an empty, sterile plantcon containing MSO. During this process, the plantcon(s) containing stems were kept closed except when adding more stems.
# On the day of the inoculation, the stems were cut into 7 mm sections using a sterile scalpel and forceps. A 1/10 Agrobacterium solution was prepared by pipetting 4 mL of the Agrobacterium culture into 36 mL of MSO. The 1/10 agro solution was poured into the respective plates and swirled gently. A small amount of MSO was dispensed into the regeneration tissue and swirled. It was incubated for 15 min.
# After 15 minutes, the Agrobacterium solution was removed with a vacuum aspirator. Using a sterile scoopula, the explants were scooped and spread onto the coculture plates with a piece of sterile 8.5 cm Whatman filter paper placed in the middle, about 100 explants per plate. The plates were placed in a bag and stored in a warm room ( 16/8 hour light, 19° C.) for two days.
# After the two-day co-culture period, explants were placed on the appropriate selection media corresponding to the selectable marker provided in the transformation vector.
# The explants were placed on the Z1 nonselection media at 20 explants per plate. The plates were placed in a bag and stored in a warm room (16-hour light, 19° C.). The glyphosate constructs were transferred to selection medium in 3 days.
# In three days, the explants were transferred to Z1 glyphosate selection media at 20 explants per plate. The plates are bagged and placed in the warm room for one week.
# After one week, the explants that were on Z1 glyphosate media were transferred to Z2 glyphosate media at 20 explants per plate. The plates were bagged and placed back in the warm room for 4 weeks. They remained on-this selection media for four weeks.
# After two weeks, the experiment was checked for any shoots at this point. Shoots that were originating directly from the callusing end of the explant were excised. The shoots were placed on rooting media containing either kanamycin or glyphosate depending upon the selection used in the experiment and placed in the growth chamber. These were checked for rooting in two weeks. Any that were rooting were cut into tubes. This process was repeated after 2 more weeks. Any non-rooting plants were discarded after 4 weeks.
# The lipoic acid study was conducted using the glyphosate transformation protocol as outlined above. […]
# [1] = 8 μM lipoic acid, listed as Lipoic acid
# [2] = 9 μM lipoic acid, listed as Lipoic acid
compound,measurement,setting,value
"O=C(O)CCCCC1CCSS1 (stereo not shown) [lipoic acid, 1,2-dithiolane-3-pentanoic acid]",#rooted,6 μM lipoic acid,18
same,shoots,6 μM lipoic acid,27
same,% TE (transformation efficiency),6 μM lipoic acid,4.5%
same,% escape,6 μM lipoic acid,33.0%
same,#rooted,7 μM lipoic acid,16
same,shoots,7 μM lipoic acid,25
same,% TE (transformation efficiency),7 μM lipoic acid,4.0%
same,% escape,7 μM lipoic acid,36.0%
same,#rooted,8 μM lipoic acid,75
same,shoots,8 μM lipoic acid,89
same,% TE (transformation efficiency),8 μM lipoic acid,19.0%
same,% escape,8 μM lipoic acid,16.0%
same,% TE (transformation efficiency),[1],19%
same,% escape,[1],16%
same,#rooted,9 μM lipoic acid,70
same,shoots,9 μM lipoic acid,89
same,% TE (transformation efficiency),9 μM lipoic acid,18.0%
same,% escape,9 μM lipoic acid,21.0%
same,% TE (transformation efficiency),[2],18%
same,% escape,[2],21%
same,increase in transformation efficiency,lipoic acid at 8 μM and 9 μM vs control,sixfold increase
same,effect on transformation efficiency and escapes,lipoic acid at 6 and 7 μM,little effect
